Experimental data as given in patent US11286268B1, “EIF4E-inhibiting compounds and methods” (EFFECTOR THERAPEUTICS, INC., priority 2019, dated 2022).

Biological target: recombinant eIF4E (Homo sapiens (Human), UniProt P06730)
Assay: Fluorescence polarization competition assay for eIF4E binding potency
Details: inhibition of eIF4E/EDA-m7GDP-ATTO-550 binding; calculated IC50 values, Table 4B; read-out: IC50
Method in brief: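 Competition of test compound against 20 nM EDA-m^7GDP-ATTO-550 for 75 nM recombinant eIF4E, pre-incubated 5 min, in 20 mM Tris pH 7.5, 100 mM NaCl, 1 mM DTT, 0.02% Tween-20, 1% DMSO. Equilibrated 30 min at room temperature, dark; fluorescence polarization read. IC50 from 8-point, 3-fold dilution series.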

Chain of recombinant eIF4E (P06730 whole entry): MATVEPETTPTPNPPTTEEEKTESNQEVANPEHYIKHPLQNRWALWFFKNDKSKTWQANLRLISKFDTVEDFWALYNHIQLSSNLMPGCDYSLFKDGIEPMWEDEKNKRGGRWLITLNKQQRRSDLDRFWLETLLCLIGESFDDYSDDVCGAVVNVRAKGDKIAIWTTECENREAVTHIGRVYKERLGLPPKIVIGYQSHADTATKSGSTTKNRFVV

| IC50 | Compound |
| --- | --- |
| 0.0295 µM | Cc1nc2cnc(N3CC4(C3)CN(C3CC3(C)C)C4)c(C#N)c2c(=O)n1CCOc1ccc(Cl)cc1-c1ccnc2c(C(=O)O)csc12 (centres unmarked) [compound 1436] |
| 0.0408 µM | Cc1nc2cnc(N3CCN(C4CC4)C(C(F)(F)F)C3)c(C#N)c2c(=O)n1CCOc1ccc(Cl)cc1-c1ccnc2c(C(=O)O)csc12 (centres unmarked) [compound 1438] |
| 0.018 µM | Cc1nc2cnc(N3CCN(CCCF)CC3)c(C#N)c2c(=O)n1CC#Cc1ccc(Cl)cc1-c1ccnc2c(C(=O)O)csc12 [compound 1457] |
| 0.0191 µM | Cc1nc2cnc(N3CCN(CCCC(F)(F)F)CC3)c(C#N)c2c(=O)n1CC#Cc1ccc(Cl)cc1-c1ccnc2c(C(=O)O)csc12 [compound 1458] |
| 0.00799 µM | Cc1nc2cnc(N3CCN(C)C(COC(F)(F)F)C3)c(C#N)c2c(=O)n1CC#Cc1ccc(Cl)cc1-c1ccnc2c(C(=O)O)csc12 (centres unmarked) [compound 1460] |
| 0.0138 µM | Cc1nc2cnc(C3=CCN(C4CC4)CC3)c(C#N)c2c(=O)n1CC#Cc1ccc(Cl)cc1-c1ccnc2c(C(=O)O)csc12 [compound 1461] |
| 0.0201 µM | Cc1nc2cnc(C3=CCN(CCF)CC3)c(C#N)c2c(=O)n1CC#Cc1ccc(Cl)cc1-c1ccnc2c(C(=O)O)csc12 [compound 1462] |
| 0.0134 µM | Cc1nc2cnc(N3CCN(CCOC(F)F)CC3)c(C#N)c2c(=O)n1CC#Cc1ccc(Cl)cc1-c1ccnc2c(C(=O)O)csc12 [compound 1464] |
| 0.0236 µM | COCC1(N2CCN(c3ncc4nc(C)n(CC#Cc5ccc(Cl)cc5-c5ccnc6c(C(=O)O)csc56)c(=O)c4c3C#N)CC2)CC1 [compound 1465] |
| 0.011 µM | Cc1nc2cnc(N3CCC(N4CC(F)(F)C4)CC3)c(C#N)c2c(=O)n1CC#Cc1ccc(Cl)cc1-c1ccnc2c(C(=O)O)csc12 [compound 1467] |
| 0.0308 µM | Cc1nc2cnc(N3CCN(CC4(F)CC4)CC3)c(C#N)c2c(=O)n1CCOc1ccc(Cl)cc1-c1ccnc2c(C(=O)O)csc12 [compound 1470] |
| 0.0142 µM | Cc1nc2cnc(N3CCN(CC4(C(F)(F)F)CC4)CC3)c(C#N)c2c(=O)n1CCOc1ccc(Cl)cc1-c1ccnc2c(C(=O)O)csc12 [compound 1471] |
| 0.0289 µM | Cc1nc2cnc(N3CCN(CC(C)(C)C(F)(F)F)CC3)c(C#N)c2c(=O)n1CCOc1ccc(Cl)cc1-c1ccnc2c(C(=O)O)csc12 [compound 1472] |
| 0.013 µM | Cc1nc2cnc(N3C[C@H]4CN(CC(F)F)C[C@H]4C3)c(C#N)c2c(=O)n1CCOc1ccc(Cl)cc1-c1ccnc2c(C(=O)O)csc12 [compound 1478] |
| 0.0229 µM | Cc1nc2cnc(CCN(C)CC(F)F)c(C#N)c2c(=O)n1CCOc1ccc(Cl)cc1-c1ccnc2c(C(=O)O)csc12 [compound 1485] |
| 0.0107 µM | Cc1nc2cnc(N3CCN(CCC(F)(F)F)CC3)c(C#N)c2c(=O)n1CC#Cc1ccc(Cl)cc1-c1ccnc2c(C(=O)NS(C)(=O)=O)csc12 [compound 1486] |
| 0.0254 µM | Cc1nc2cnc(N3CCN(CC(F)F)CC3)c(C#N)c2c(=O)n1CC#Cc1ccc(Cl)cc1-c1ccnc2c(C(=O)NS(C)(=O)=O)csc12 [compound 1487] |
| 0.029 µM | Cc1nc2cnc(N(C)CCN(C)CC(F)(F)F)c(C#N)c2c(=O)n1CC#Cc1ccc(Cl)cc1-c1ccnc2c(C(=O)O)csc12 [compound 1491] |
| 0.0201 µM | Cc1nc2cnc(CCN(C)CC(F)F)c(C#N)c2c(=O)n1CC#Cc1ccc(Cl)cc1-c1ccnc2c(C(=O)O)csc12 [compound 1492] |
| 0.0247 µM | Cc1nc2cnc(N(C)C3CCN(C4(C#N)CC4)CC3)c(C#N)c2c(=O)n1CC#Cc1ccc(Cl)cc1-c1ccnc2c(C(=O)O)csc12 [compound 1494] |
| 0.00709 µM | Cc1nc2cnc(N(C)C3CCN(C)CC3)c(C#N)c2c(=O)n1CC#Cc1ccc(Cl)cc1-c1ccnc2c(C(=O)O)csc12 [compound 1495] |
| 0.0325 µM | Cc1nc2cnc(N(C)C3CCN(C4CC4)C4(CC4)C3)c(C#N)c2c(=O)n1CC#Cc1ccc(Cl)cc1-c1ccnc2c(C(=O)O)csc12 (centres unmarked) [compound 1496] |
| 0.0129 µM | Cc1nc2cnc(N(C)CCCN(C)CC(F)(F)F)c(C#N)c2c(=O)n1CC#Cc1ccc(Cl)cc1-c1ccnc2c(C(=O)O)csc12 [compound 1497] |
| 0.0275 µM | Cc1nc2cnc(N3CCC34CN(CC(F)F)C4)c(C#N)c2c(=O)n1CC#Cc1ccc(Cl)cc1-c1ccnc2c(C(=O)O)csc12 [compound 1499] |
| 0.017 µM | Cc1nc2cnc(N3CCC34CCN(CC(F)F)CC4)c(C#N)c2c(=O)n1CC#Cc1ccc(Cl)cc1-c1ccnc2c(C(=O)O)csc12 [compound 1500] |
| 0.0262 µM | CCC(F)(F)CN1CCC(N(C)c2ncc3nc(C)n(CC#Cc4ccc(Cl)cc4-c4ccnc5c(C(=O)O)csc45)c(=O)c3c2C#N)CC1 [compound 1502] |
| 0.0136 µM | Cc1nc2cnc(N(C)C3CCN(C4(COC(F)F)CC4)CC3)c(C#N)c2c(=O)n1CC#Cc1ccc(Cl)cc1-c1ccnc2c(C(=O)O)csc12 [compound 1504] |
| 0.013 µM | COCCC(CCOC)N(C)c1ncc2nc(C)n(CC#Cc3ccc(Cl)cc3-c3ccnc4c(C(=O)O)csc34)c(=O)c2c1C#N [compound 1505] |
| 0.0274 µM | Cc1nc2cnc(N(C)C3CCN(C(C)(C)C(C)(F)F)CC3)c(C#N)c2c(=O)n1CC#Cc1ccc(Cl)cc1-c1ccnc2c(C(=O)O)csc12 [compound 1506] |

Further lines, the compound ahead of its results:

| Compound | IC50 |
| --- | --- |
| Cc1nc2cnc(N(C)C3CCN(C(C)(C)CF)CC3)c(C#N)c2c(=O)n1CCOc1ccc(Cl)cc1-c1ccnc2c(C(=O)O)csc12 [compound 1429] | 0.0178 µM |
| Cc1nc2cnc(N(C)C3CCN(C4(C(F)F)CC4)CC3)c(C#N)c2c(=O)n1CCOc1ccc(Cl)cc1-c1ccnc2c(C(=O)O)csc12 [compound 1430] | 0.0228 µM |
| Cc1nc2cnc(N(C)C3CCN(C(C)(C)C(F)F)CC3)c(C#N)c2c(=O)n1CCOc1ccc(Cl)cc1-c1ccnc2c(C(=O)O)csc12 [compound 1431] | 0.0198 µM |
| Cc1nc2cnc(N(C)C3CCN(C(CF)CF)CC3)c(C#N)c2c(=O)n1CCOc1ccc(Cl)cc1-c1ccnc2c(C(=O)O)csc12 [compound 1432] | 0.0212 µM |
| CCN(c1ncc2nc(C)n(CCOc3ccc(Cl)cc3-c3ccnc4c(C(=O)O)csc34)c(=O)c2c1C#N)C1CCN(CC(F)F)CC1 [compound 1433] | 0.0274 µM |
| Cc1nc2cnc(N(C)C3CCN(CC(F)(F)Cl)CC3)c(C#N)c2c(=O)n1CCOc1ccc(Cl)cc1-c1ccnc2c(C(=O)O)csc12 [compound 1441] | 0.0298 µM |
| Cc1nc2cnc(N3CCN(C)C(CF)C3)c(C#N)c2c(=O)n1CC#Cc1ccc(Cl)cc1-c1ccnc2c(C(=O)O)csc12 (centres unmarked) [compound 1459] | 0.0207 µM |
| Cc1nc2cnc(C3=CCN(CC(F)F)CC3)c(C#N)c2c(=O)n1CC#Cc1ccc(Cl)cc1-c1ccnc2c(C(=O)O)csc12 [compound 1463] | 0.0229 µM |
| Cc1nc2cnc(N3CCN(C(C)C(F)F)CC3)c(C#N)c2c(=O)n1CC#Cc1ccc(Cl)cc1-c1ccnc2c(C(=O)O)csc12 (centres unmarked) [compound 1466] | 0.0179 µM |
| Cc1nc2cnc(C#CCN(C)CC(F)(F)F)c(C#N)c2c(=O)n1CC#Cc1ccc(Cl)cc1-c1ccnc2c(C(=O)O)csc12 [compound 1468] | 0.035 µM |
| CCC(F)(CC)CN1CCN(c2ncc3nc(C)n(CCOc4ccc(Cl)cc4-c4ccnc5c(C(=O)O)csc45)c(=O)c3c2C#N)CC1 [compound 1469] | 0.023 µM |
| Cc1nc2cnc(N3CCN(C4C(C)(C)C4(C)C)CC3)c(C#N)c2c(=O)n1CCOc1ccc(Cl)cc1-c1ccnc2c(C(=O)O)csc12 [compound 1473] | 0.0169 µM |
| Cc1nc2cnc(N3CCN(CC(F)(F)Cl)CC3)c(C#N)c2c(=O)n1CCOc1ccc(Cl)cc1-c1ccnc2c(C(=O)O)csc12 [compound 1474] | 0.0138 µM |
| Cc1nc2cnc(N3CC4(C3)CN(C3CC(F)(F)C3)C4)c(C#N)c2c(=O)n1CCOc1ccc(Cl)cc1-c1ccnc2c(C(=O)O)csc12 [compound 1475] | 0.0072 µM |
| Cc1nc2cnc(N3CC4(C3)CN(C3C(C)(C)C3(C)C)C4)c(C#N)c2c(=O)n1CCOc1ccc(Cl)cc1-c1ccnc2c(C(=O)O)csc12 [compound 1476] | 0.0162 µM |
| Cc1nc2cnc(N(C)C3CCN(C4CC(F)(F)C4)CC3)c(C#N)c2c(=O)n1CCOc1ccc(Cl)cc1-c1ccnc2c(C(=O)O)csc12 [compound 1477] | 0.0181 µM |
| Cc1nc2cnc(OC3CCN(CCF)CC3)c(C#N)c2c(=O)n1CCOc1ccc(Cl)cc1-c1ccnc2c(C(=O)O)csc12 [compound 1479] | 0.0167 µM |
| Cc1nc2cnc(C3CCC(F)(F)CC3)c(C#N)c2c(=O)n1CC#Cc1ccc(Cl)cc1-c1ccnc2c(C(=O)O)csc12 [compound 1481] | 0.0208 µM |
| Cc1nc2cnc(C3=CCC(F)(F)CC3)c(C#N)c2c(=O)n1CC#Cc1ccc(Cl)cc1-c1ccnc2c(C(=O)O)csc12 [compound 1482] | 0.0166 µM |
| Cc1nc2cnc(N3CCN(C(C)(C)CF)CC3)c(C#N)c2c(=O)n1CCOc1ccc(Cl)cc1-c1ccnc2c(C(=O)NS(C)(=O)=O)csc12 [compound 1483] | 0.0137 µM |
| Cc1nc2cnc(CC3CCN(CC(F)F)CC3)c(C#N)c2c(=O)n1CCOc1ccc(Cl)cc1-c1ccnc2c(C(=O)O)csc12 [compound 1484] | 0.0229 µM |
| Cc1nc2cnc(N3CCN(CCF)CC3)c(C#N)c2c(=O)n1CC#Cc1ccc(Cl)cc1-c1ccnc2c(C(=O)NS(C)(=O)=O)csc12 [compound 1488] | 0.0123 µM |
| Cc1nc2cnc(N3CCC4(CC3)CCN4CC(F)F)c(C#N)c2c(=O)n1CC#Cc1ccc(Cl)cc1-c1ccnc2c(C(=O)O)csc12 [compound 1490] | 0.0291 µM |
| Cc1nc2cnc(N3CCN(C4(C)CC(F)(F)C4)CC3)c(C#N)c2c(=O)n1CC#Cc1ccc(Cl)cc1-c1ccnc2c(C(=O)O)csc12 [compound 1493] | 0.00683 µM |
| Cc1nc2cnc(/C=C/CN(C)C)c(C#N)c2c(=O)n1CC#Cc1ccc(Cl)cc1-c1ccnc2c(C(=O)O)csc12 [compound 1498] | 0.0291 µM |
| Cc1nc2cnc(N(C)C3CCN(CC(F)(F)F)CC3)c(C#N)c2c(=O)n1CC#Cc1ccc(Cl)cc1-c1ccnc2c(C(=O)NS(C)(=O)=O)csc12 [compound 1501] | 0.0205 µM |
| Cc1nc2cnc(N(C)C3CCN(CCOC(F)F)CC3)c(C#N)c2c(=O)n1CC#Cc1ccc(Cl)cc1-c1ccnc2c(C(=O)O)csc12 [compound 1503] | 0.0192 µM |
